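Cells were grown in 96-well plates and exposed to each compound for 48 hours at five concentrations; endpoints were interpolated linearly between bracketing concentrations, or set to the highest concentration if not reached. GI50 is the concentration that inhibits growth by half.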 Activity calls are given as the source filed them. No stated cut-off is given here; in the data, active = GI50 up to about 1.1 µM and inactive = higher. A value given as a limit tells only on which side of the number the result lay.

Experimental findings from ChEMBL document CHEMBL1201862, “PubChem BioAssay data set” (2004) are described below.

Some test systems named below: SF-539; RXF 393; KM12; Malme-3M; NCI/ADR-RES; IGROV-1; 786-0; LOX IMVI; UO-31; U-251; A498; CAKI-1; HL-60; HCC 2998; SNB-19; NCI-H522; ACHN; Hs-578T; MDA-MB-435; BT-549.
Holding throughout (experiment): DTP human tumour cell line panel, 48 h

As usually defined, the GI50 is the concentration at which growth is held to half of that of the control. Take `C[C@@H](c1ccccc1)C(CC#N)[C@H]1CCC[C@]1(O)C#Cc1ccc2c(c1)OCO2` (some centres undefined): the GI50 with SF-539 is 10.6 µM (inactive); in the experiment with RXF 393, 14.4 µM (inactive); with KM12, 16.7 µM (inactive); with Malme-3M, 15.8 µM (inactive); in the experiment on NCI/ADR-RES it was 16 µM (inactive); in the experiment on IGROV-1 it was 14.3 µM (inactive). The GI50 in the experiment on 786-0 was 17.5 µM (inactive); with LOX IMVI, 18.5 µM (inactive); with UO-31, 14.4 µM (inactive); with U-251, 16.9 µM (inactive); with A498, 19.8 µM (inactive); in the experiment with CAKI-1, 15.8 µM (inactive). Further, the GI50 in the experiment with HL-60 was 18.3 µM (inactive); with HCC 2998, 16.3 µM (inactive); in the experiment on SNB-19 it was 16.1 µM (inactive); with NCI-H522, 15.3 µM (inactive); with ACHN, 16.6 µM (inactive); with Hs-578T it was 20.8 µM (inactive). Further, in the experiment with MDA-MB-435, the GI50 is 16.6 µM (inactive).
Turning to `COC(=O)C1=C(OC(=O)/C(=C/c2c(F)cccc2F)c2ccccc2)C(C(=O)OC)[C@@]2(O)[C@@H](C(=O)OC)[C@H](C)C[C@@H]1[C@@H]2C(=O)OC` (some centres undefined), the GI50 with SF-539 is > 100 µM (inactive); in the experiment with RXF 393 it was > 100 µM (inactive); with KM12 it was > 100 µM (inactive); in the experiment with BT-549, > 100 µM (inactive); with Malme-3M, 68.5 µM (inactive); in the experiment with NCI/ADR-RES, > 100 µM (inactive). Further, the GI50 was 59.4 µM (inactive) in the experiment on IGROV-1; > 100 µM (inactive) in the experiment with 786-0; > 100 µM (inactive) in the experiment on LOX IMVI; 2.9 µM (inactive) in the experiment with UO-31; > 100 µM (inactive) in the experiment on U-251; > 100 µM (inactive) with CAKI-1. Further, the GI50 with HL-60 is > 100 µM (inactive); in the experiment with SNB-19, > 100 µM (inactive); in the experiment on NCI-H522 it was 6.76 µM (inactive); in the experiment on ACHN, > 100 µM (inactive); in the experiment on MDA-MB-435, > 100 µM (inactive).
Consider `Nc1ccn([C@H]2CO[C@@H](CO)[C@@H]2O)c(=O)n1`, for which the GI50 in the experiment with SF-539, in the experiment with RXF 393, with KM12, with BT-549, with NCI/ADR-RES and in the experiment with IGROV-1 was > 100 µM (inactive) in each case. Besides, the GI50 in the experiment on 786-0, in the experiment with LOX IMVI, with UO-31, in the experiment on U-251, with A498 and with CAKI-1 was > 100 µM (inactive) throughout. Also, the GI50 in the experiment with HCC 2998, in the experiment with ACHN and in the experiment with MDA-MB-435 was > 100 µM (inactive) each time.
For `CCCC[C@@H](C)/C=C1\CN2CCC[C@H]2[C@@](C)(O)[C@@H]1O`, the GI50 in the experiment with SF-539 was 62.2 µM (inactive); in the experiment on RXF 393, 0.0292 µM (active); in the experiment on KM12 it was > 100 µM (inactive); in the experiment with Malme-3M it was > 100 µM (inactive); in the experiment on NCI/ADR-RES it was 58.9 µM (inactive); in the experiment on IGROV-1, 51.6 µM (inactive). Moreover, the GI50 in the experiment with 786-0 is 45.2 µM (inactive); in the experiment with LOX IMVI, 22.8 µM (inactive); in the experiment on UO-31, 50.7 µM (inactive); in the experiment on U-251, 66.2 µM (inactive); in the experiment on A498, > 100 µM (inactive); in the experiment on CAKI-1 it was 4.2 µM (inactive). In addition, the GI50 is 1.92 µM (inactive) with HL-60; 71.3 µM (inactive) in the experiment on HCC 2998; 58.9 µM (inactive) in the experiment on SNB-19; 56.1 µM (inactive) in the experiment on NCI-H522; 42 µM (inactive) with ACHN; > 100 µM (inactive) in the experiment with Hs-578T. Also, in the experiment with MDA-MB-435, the GI50 was 96.2 µM (inactive).
In the case of `COc1cccc(C2c3cc4c(cc3OC(O)C2C)OCO4)c1OC` (centres undefined), the GI50 in the experiment with SF-539 was 11.1 µM (inactive); in the experiment on RXF 393, 3.4 µM (inactive); in the experiment on KM12, 5.04 µM (inactive); in the experiment with BT-549, 10.1 µM (inactive); in the experiment on Malme-3M, 11 µM (inactive); in the experiment on IGROV-1, 4.65 µM (inactive). Further, the GI50 in the experiment on 786-0 was 3.29 µM (inactive); in the experiment on LOX IMVI it was 4.05 µM (inactive); in the experiment on U-251, 3.27 µM (inactive); in the experiment with A498 it was 4.49 µM (inactive); with CAKI-1, 2.14 µM (inactive); in the experiment on HL-60, 1.87 µM (inactive). In addition, the GI50 is 14.9 µM (inactive) in the experiment on HCC 2998; 11.2 µM (inactive) with SNB-19; 3.18 µM (inactive) in the experiment with ACHN; 4.46 µM (inactive) in the experiment on Hs-578T; 5.97 µM (inactive) with MDA-MB-435.
With `Clc1ccc(-c2nnc(C34CC5CC(CC(C5)C3)C4)o2)cc1`, the GI50 with SF-539, with RXF 393, in the experiment on Malme-3M, in the experiment on NCI/ADR-RES, with IGROV-1 and in the experiment with 786-0 was > 100 µM (inactive) throughout. Moreover, the GI50 in the experiment on LOX IMVI was > 100 µM (inactive); with UO-31, 3.78 µM (inactive); with U-251 it was > 100 µM (inactive); in the experiment on A498, > 100 µM (inactive); with CAKI-1 it was > 100 µM (inactive); with HL-60 it was > 100 µM (inactive). In addition, the GI50 in the experiment on HCC 2998, in the experiment with SNB-19, in the experiment on NCI-H522, in the experiment on ACHN, in the experiment on Hs-578T and with MDA-MB-435 was > 100 µM (inactive) each time.
`CC1(C)OCC(COC(=O)NCn2cc(-c3ccccc3)nn2)O1` (centres undefined): the GI50 in the experiment with SF-539, with KM12, with BT-549, in the experiment on Malme-3M, in the experiment on NCI/ADR-RES and in the experiment with IGROV-1 was > 100 µM (inactive) in each case. The GI50 with 786-0 is > 100 µM (inactive); in the experiment on LOX IMVI, > 100 µM (inactive); with U-251, > 100 µM (inactive); in the experiment with CAKI-1, > 100 µM (inactive); in the experiment with HL-60, > 100 µM (inactive); with HCC 2998, 26.2 µM (inactive). Further, the GI50 with SNB-19, with NCI-H522 and in the experiment with ACHN was > 100 µM (inactive) in each case.
Turning to `c1cc2nnc1SCCSCCCSCCS2`, the GI50 in the experiment on SF-539 was 20 µM (inactive); in the experiment with RXF 393 it was > 100 µM (inactive); with KM12, > 100 µM (inactive); in the experiment on Malme-3M, > 100 µM (inactive); in the experiment with NCI/ADR-RES it was > 100 µM (inactive); in the experiment on IGROV-1 it was > 100 µM (inactive). For the same compound, the GI50 in the experiment with 786-0 was 67 µM (inactive); in the experiment on LOX IMVI, > 100 µM (inactive); in the experiment on UO-31, > 100 µM (inactive); in the experiment with U-251, > 100 µM (inactive); in the experiment on A498 it was > 100 µM (inactive); in the experiment on CAKI-1, > 100 µM (inactive). For the same compound, the GI50 in the experiment on HL-60 is > 100 µM (inactive); in the experiment on HCC 2998, > 100 µM (inactive); in the experiment with SNB-19, 56.8 µM (inactive); with NCI-H522 it was > 100 µM (inactive); with ACHN it was > 100 µM (inactive); in the experiment on Hs-578T it was > 100 µM (inactive). The GI50 in the experiment on MDA-MB-435 was > 100 µM (inactive).
